Test results as given in patent US11773183B2, “MUC16 monoclonal antibody and uses thereof” (QUEST PHARMATECH INC., priority 2018, dated 2023).

Test system: T3M4 wildtype (WT) cells
Test: Live/Dead cell cytotoxicity assay, T3M4 wildtype cells
Type: cell-based, human
Conditions: 24 h
Method: Materials and Methods. T3M4 wildtype (WT) and COSMC deleted (SimpleCells, SC) were treated with equal amounts of mAR 9.6 (5 μg/ml) and POCmAb (5 μg/ml) or with isotype matched (either mouse or human) control IgG antibody for 24 h. For the comparison of effect of antibodies in inducing cell death, T3M4 WT cells were treated with Sapitinib (an ErbB receptor tyrosine kinase inhibitor, 5.4 μM) and LY294002 (PI3K/Akt inhibitor, 11.3 μM) alone or in combination with mAR9.6 (5 μg/ml) and POCmAb (5 μg/ml) for 24 h. The cells were washed well with cell-culture grade PBS. 20 μl ethidium homodimer-1 (EthD-1, 2 mM) was dissolved in 10 ml PBS. To this solution, 5 μl of calcein acetoxymethyl ester (calcein-AM, 4 mM) was added. 150 μl of this combined reagent was added to the cells grown on coverslip and incubated for 30-45 minutes. The numbers of live and dead cells were detected with Zeiss LSM 710™ confocal laser scanning microscope (Carl Zeiss, Inc., Thornwood, NY, USA) at Confocal Laser Scanning Fluorescence Microscope Core Facility, UNMC. The ratio of dead cells to total cells was calculated for quantitative comparisons. Unpaired Student's t-test was performed to calculate the statistical significance between the antibodies treated T3M4 WT and T3M4 SC cells (n=4) (p<0.05 considered statistically significant). Two way analysis of variance (ANOVA) was performed to calculate the statistical significance between the inhibitors and antibody treated T3M4 cells (n=4) (p<0.05 considered statistically significant).

[1] = inhibitor (Sapitinib 5.4 μM, LY294002 11.3 μM) with human IgG isotype control
[2] = inhibitor (Sapitinib 5.4 μM, LY294002 11.3 μM) with mouse IgG isotype control

Row | SMILES | cell death (ratio of dead cells to total cells) [1] | cell death (ratio of dead cells to total cells) [2]
1 | O=c1cc(N2CCOCC2)oc2c(-c3ccccc3)cccc12 [LY294002] | about 15% | about 15%
2 | CNC(=O)CN1CCC(Oc2cc3c(Nc4cccc(Cl)c4F)ncnc3cc2OC)CC1 [Sapitinib] | about 17% | about 17%
